Measurements published in patent publication US20250197372A1 (priority 2020, published 2025).

biological target: T1, recombinant alpha-glucosidase I (human full-length glucosidase I, Glu 1) (Homo sapiens, UniProt Q13724); assay: Alpha-glucosidase I assay (Amplex Red glucose detection, synthetic trisaccharide substrate); type: biochemical; details: Glucosidase 1; read-out: Glu 1 IC50
T1 construct: 6-His (C); made in house; host or cells: HEK-293T cells transduced with BacMam virus (virus raised in Sf9)
T1 sequence (Q13724 1-837): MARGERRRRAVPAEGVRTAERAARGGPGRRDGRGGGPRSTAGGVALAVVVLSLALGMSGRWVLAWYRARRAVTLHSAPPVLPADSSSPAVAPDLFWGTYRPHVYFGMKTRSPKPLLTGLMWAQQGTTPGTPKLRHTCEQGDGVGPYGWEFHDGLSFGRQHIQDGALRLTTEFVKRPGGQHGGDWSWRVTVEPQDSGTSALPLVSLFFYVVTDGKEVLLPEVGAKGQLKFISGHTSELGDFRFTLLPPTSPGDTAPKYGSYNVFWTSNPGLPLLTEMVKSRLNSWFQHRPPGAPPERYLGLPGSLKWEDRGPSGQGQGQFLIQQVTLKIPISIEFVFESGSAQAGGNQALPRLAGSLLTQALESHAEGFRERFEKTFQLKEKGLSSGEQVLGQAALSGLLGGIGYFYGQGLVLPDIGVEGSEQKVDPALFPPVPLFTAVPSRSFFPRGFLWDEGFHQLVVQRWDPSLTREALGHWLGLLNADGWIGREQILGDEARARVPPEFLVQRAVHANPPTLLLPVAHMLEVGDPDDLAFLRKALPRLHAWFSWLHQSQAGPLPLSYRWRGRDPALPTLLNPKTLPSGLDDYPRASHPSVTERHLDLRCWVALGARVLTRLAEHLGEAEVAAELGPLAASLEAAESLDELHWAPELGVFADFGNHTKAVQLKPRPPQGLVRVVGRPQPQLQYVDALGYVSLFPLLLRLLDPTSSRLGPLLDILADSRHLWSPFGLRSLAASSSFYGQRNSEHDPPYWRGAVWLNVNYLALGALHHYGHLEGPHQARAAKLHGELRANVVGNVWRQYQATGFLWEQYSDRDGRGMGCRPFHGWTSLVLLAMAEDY
Procedure, shortened: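 Human full-length glucosidase I, His-tagged, […] and Ni-purified. Enzyme preincubated with compound dilutions 60 min at 37° C, then synthetic trisaccharide substrate 90 min at 37° C; stopped with 1.5M Tris pH 8.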

Structure (SMILES)	IC50 [µM]
[N-]=[N+]=Nc1ccc(NCCCCCCN2C[C@H](O)[C@@H](O)[C@H](O)[C@H]2CO)c(C(=O)O)c1 [Compound 1297, 5-azido-2-({6-[(2R,3R,4R,5S)-3,4,5-trihydroxy-2-(hydroxymethyl)piperidin-1-yl]hexyl}amino)benzoic acid]	1.3
Cc1cc(NCc2cnc(CN3C[C@H](O)[C@@H](O)[C@H](O)[C@H]3CO)cn2)cc(N2CCOCC2)c1 [Compound 1332, (2R,3R,4R,5S)-2-(hydroxymethyl)-1-{[5-({[3-methyl-5-(morpholin-4-yl)phenyl]amino}methyl)pyrazin-2-yl]methyl}piperidine-3,4,5-triol]	2.82
COCCCCCN(CCCNc1ccc(N=[N+]=[N-])cc1[N+](=O)[O-])CCCN1C[C@H](O)[C@@H](O)[C@H](O)[C@H]1CO [Compound 1221, (2R,3R,4R,5S)-1-[3-({3-[(4-azido-2-nitrophenyl)amino]propyl}(5-methoxypentyl)amino)propyl]-2-(hydroxymethyl)piperidine-3,4,5-triol]	2.23
OC[C@@H]1[C@@H](O)[C@H](O)[C@@H](O)CN1CCCCCCNc1cc(Cl)cc(-c2ncccn2)c1 [Compound 1212, (2R,3R,4R,5S)-1-(6-{[3-chloro-5-(pyrimidin-2-yl)phenyl]amino}hexyl)-2-(hydroxymethyl)piperidine-3,4,5-triol]	0.105
CS(C)=NS(=O)(=O)c1cc(-c2ncccn2)ccc1NCCCCCCN1C[C@H](O)[C@@H](O)[C@H](O)[C@H]1CO [Compound 1247, N-(dimethyl-2-sulfanylidene)-5-(pyrimidin-2-yl)-2-({6-[(2R,3R,4R,5S)-3,4,5-trihydroxy-2-(hydroxymethyl)piperidin-1-yl]hexyl}amino)benzene-1-sulfonamide]	0.493
N#Cc1cc(Br)cc(NCc2ccc(CN3C[C@H](O)[C@@H](O)[C@H](O)[C@H]3CO)cc2)c1 [Compound 1026, 3-bromo-5-{[(4-{[(2R,3R,4R,5S)-3,4,5-trihydroxy-2-(hydroxymethyl)piperidin-1-yl]methyl}phenyl)methyl]amino}benzonitrile]	0.007
CN(C)Cc1ccc(NCCCCCCN2C[C@H](O)[C@@H](O)[C@H](O)[C@H]2CO)c(C(=O)O)c1 [Compound 1245, 5-[(dimethylamino)methyl]-2-({6-[(2R,3R,4R,5S)-3,4,5-trihydroxy-2-(hydroxymethyl)piperidin-1-yl]hexyl}amino)benzoic acid]	0.292
OC[C@@H]1[C@@H](O)[C@H](O)[C@@H](O)CN1CCCCCCCCC1CNCCO1 (stereo partly drawn) [Compound 1311, (2R,3R,4R,5S)-2-(hydroxymethyl)-1-[8-(morpholin-2-yl)octyl]piperidine-3,4,5-triol]	1.76
[N-]=[N+]=Nc1ccc(NCCc2cccc(CCN3C[C@H](O)[C@@H](O)[C@H](O)[C@H]3CO)c2)c([N+](=O)[O-])c1 [Compound 1240, (2R,3R,4R,5S)-1-[2-(3-{2-[(4-azido-2-nitrophenyl)amino]ethyl}phenyl)ethyl]-2-(hydroxymethyl)piperidine-3,4,5-triol]	0.283
